Source: patent US20100190797A1, “C[…] OF ZOPICLONE, PROCESSES FOR THEIR PREPARATION AND THEIR PHARMACEUTICAL COMPOSITIONS” (CIPLA LTD., priority 2007, published 2010)

Legend:
[1] = Stability of crystalline polymorphic forms of Zopiclone (conversion to hydrate form); settings: conversion to more stable hydrate form of Zopiclone
[2] = Hygroscopicity on exposure to air; format: physicochemical; settings: does not capture moisture even on exposure to air
[3] = background statement; Form A gets converted into dihydrate Form B; cited from earlier work

CN1CCN(C(=O)OC2c3nccnc3C(=O)N2c2ccc(Cl)cn2)CC1 (centres unmarked) [Form C, Zopiclone]
thermodynamic stability of the crystalline form [1]: thermodynamically unstable

CN1CCN(C(=O)OC2c3nccnc3C(=O)N2c2ccc(Cl)cn2)CC1 (centres unmarked) [Zopiclone Form D, Zopiclone]
thermodynamic stability of the crystalline form [1]: stable | hygroscopicity [2]: non-hygroscopic

CN1CCN(C(=O)OC2c3nccnc3C(=O)N2c2ccc(Cl)cn2)CC1 (centres unmarked) [Zopiclone Form A, Zopiclone]
stability of the known crystalline form [3]: unstable

CN1CCN(C(=O)OC2c3nccnc3C(=O)N2c2ccc(Cl)cn2)CC1 (centres unmarked) [Form B, Zopiclone]
stability of the known crystalline form [3]: thermodynamically stable
